Like-named read-outs stand apart in the source and are kept apart here.
Tests used:
[1] = cited from earlier work; for concentrations ensuring good antioxidative activity in vitro: in vitro (Atanasiu et al., 1998)
[2] = system: ischemic isolated rat heart; test: Reperfusion-induced irreversible ventricular fibrillation in isolated rat heart submitted to partial ischemia-reperfusion (Langendorff); details: TRIAD (S2) 0.16×, CP 0.5 μM
Protocol: All experiments were conformed to rules of the Guide for the care and use of laboratory animals published by the US National Institutes of Health (NIH publication No 85-23, revised 1985). Adult male Wistar rats (225-250 g) were anaesthetized with sodium pentobarbitone intra-peritoneally (0.1 ml/100 g body weight) and then heparinized (500 UI intra-peritoneally). […]
Hearts were perfused for a 10 min control period with KH buffer, and then […] with KH+TRIAD for stabilization. […] At the end of this 10 min arterial occlusion period, reperfusion was initiated by cutting the ligature with a scalpel bled and rhythm disturbances were monitored for 15 min more. Left ventricular pressure and epicardial ECG were continuously monitored before and during ischemia and reperfusion. […]
Rat hearts were first perfused for 10 min with KH buffer and then for another 10 min with the same buffer containing TRIAD (S2) prepared as described above (section 2.2), until equilibration of cardiodynamic variables was achieved. […] Left ventricular pressure and epicardial ECG were continuously monitored before and during ischemia and reperfusion. […]
Arrhythmia were defined according to the Lambeth convention (Walker et al., 1988). ECG recordings were analyzed for the incidence of irreversible ventricular fibrillation (IVF) and for the time of normal sinus. […]

[3] = conditions without oxidative stress (Atanasiu et al, 1996); cited from earlier work
[4] = system: isolated rat hearts; details: isolated rat heart, blood-free model (Chahine et al., 1991; Atanasiu et al, 1995), cited from earlier work

| Substance | concentrations ensuring good antioxidative activity in vitro [1] | incidence of reperfusion-induced irreversible ventricular fibrillation (IVF) ([2]; isolated rat heart, 10 min regional ischemia then reperfusion, control 100%) | cardioprotection ([2]; reduction of IVF incidence versus control (100%)) | scavenging capacity compared with other antioxidants ([1]; in vitro, β-phycocyanin indicator) | electrophysiological effect [3] | cardioprotective concentrations [4] | cardiotoxic concentration [4] | cardiotoxic concentration ([4]; listed as Ceruloplasmin) |
| --- | --- | --- | --- | --- | --- | --- | --- | --- |
| Albumin [reference compound] | 260 µM | – | – | – | – | – | – | – |
| Ceruloplasmin [CP] | 2 to 15 µM | 75% | 25% | better scavenging capacity than SOD and than deferoxamine | prolongation of Effective Refractory Period (ERP) and of the action potential (AP) | up to 2 μM | ≥ 4 µM | 4 µM |
